Measurements published in the supplement of paper PMC10307832.

Compound: COc1cccc2cc(-c3nc([C@H]4CC[C@H](C(=O)O)CC4)n4ncnc(N)c34)[nH]c12 [OSI-027] + NC(=O)Nc1cc(-c2cccc(F)c2)sc1C(=O)N[C@H]1CCCNC1 [AZD7762] (partner 0.2 µM)
Assay: relative viability (nuclei count vs DMSO), 5 days (fraction); higher = more cells survive
Settings: first compound 1 µM
How it was run: (§1)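 Values are medians from duplicate plates. Each reflects relative viability, defined as the nuclei count of treated wells over that of vehicle wells. Lung cancer cell lines in 1536-well plates were pin-tool dosed one day after seeding with one drug alone or with a fixed anchor-drug dose plus five library-drug doses (not always all listed) in √10 steps, then fixed, stained and imaged at 4× after 5 days.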

Cell Line | relative viability
NCI-H2342 | 0.346
H3255 | 0.613
NCI-H1975 | 0.591
PC-14 | 0.22
NCI-H1437 | 0.566
HOP-62 | 0.284
HCC-44 | 1.1
BEN | 0.463
LOU-NH91 | 0.482
NCI-H1651 | 0.417
PC-3 [JPC-3] | 0.505
NCI-H1648 | 0.667
ChaGo-K-1 | 0.756
ABC-1 | 0.602
LCLC-103H | 0.542
NCI-H522 | 0.612
NCI-H1792 | 0.192
NCI-H358 | 0.347
NCI-H650 | 0.375
SW 900 | 0.402
NCI-H441 | 0.499

Compound: CCCS(=O)(=O)Nc1ccc(F)c(C(=O)c2c[nH]c3ncc(-c4ccc(Cl)cc4)cc23)c1F [Vemurafenib] + CS(=O)(=O)CCNCc1ccc(-c2ccc3ncnc(Nc4ccc(OCc5cccc(F)c5)c(Cl)c4)c3c2)o1 [Lapatinib] (partner 2 µM)
Assay: as above
Settings: first compound 0.03162 µM
How it was run: as §1

Cell Line | relative viability
NCI-H2126 | 0.753
EPLC-272H | 0.913
NCI-H1755 | 0.925
NCI-H2023 | 0.734
NCI-H1650 | 0.7
NCI-H1793 | 0.442
H3255 | 0.254
NCI-H1975 | 0.806
PC-14 | 0.255
NCI-H1299 | 0.965
NCI-H1437 | 0.748
HOP-62 | 0.915
HCC-44 | 0.991
BEN | 0.765
LOU-NH91 | 0.683
NCI-H661 | 0.488
NCI-H1651 | 0.853
PC-3 [JPC-3] | 0.464

Cell Line | relative viability
SW 1573 | 1.01
NCI-H2009 | 0.897
ABC-1 | 1.19
Calu-6 | 1.02
SK-LU-1 | 0.777
COR-L23 | 1.01
NCI-H1563 | 0.842
NCI-H1792 | 0.819
NCI-H358 | 0.408
COR-L 105 | 0.348
NCI-H520 | 0.759
EBC-1 | 0.201
NCI-H2228 | 1.11
A549 | 0.902
IA-LM | 0.764
NCI-H650 | 0.838
SK-MES-1 | 0.427

Same assay, conditions: first compound 0.1 µM

Cell Line | relative viability
NCI-H2126 | 0.783
EPLC-272H | 1
NCI-H1755 | 1.02
NCI-H2023 | 0.812
NCI-H1975 | 0.983
NCI-H1299 | 0.93
NCI-H1437 | 0.793
HOP-62 | 1.14
HCC-44 | 0.993
BEN | 0.77
LOU-NH91 | 0.78
NCI-H661 | 0.534
NCI-H1651 | 0.772
SW 1573 | 0.916
NCI-H2009 | 0.876
ABC-1 | 0.991
Calu-6 | 1.06
SK-LU-1 | 0.791
COR-L23 | 0.91
NCI-H1563 | 0.886
NCI-H1792 | 0.886
NCI-H520 | 0.839
EBC-1 | 0.214
NCI-H2228 | 1.09
A549 | 0.964
IA-LM | 0.715
NCI-H650 | 1.15
SK-MES-1 | 0.477

Same assay, conditions: first compound 0.3162 µM

Cell Line | relative viability
NCI-H2126 | 0.862
EPLC-272H | 0.423
NCI-H1755 | 0.777
NCI-H2023 | 0.736
NCI-H1650 | 0.699
NCI-H1793 | 0.645
H3255 | 0.283
NCI-H1975 | 0.709
PC-14 | 0.287
NCI-H1299 | 0.885
NCI-H1437 | 0.698
HOP-62 | 0.906
HCC-44 | 0.935
BEN | 0.323
NCI-H661 | 0.507
NCI-H1651 | 0.756
PC-3 [JPC-3] | 0.626

Cell Line | relative viability
SW 1573 | 1.02
NCI-H2009 | 0.559
ABC-1 | 1.35
Calu-6 | 1.01
COR-L23 | 0.684
NCI-H1563 | 0.84
NCI-H1792 | 0.651
NCI-H358 | 0.505
COR-L 105 | 0.32
NCI-H520 | 0.859
EBC-1 | 0.245
NCI-H2228 | 1.21
A549 | 1.06
IA-LM | 0.684
NCI-H650 | 0.313
SK-MES-1 | 0.493

Same assay, conditions: first compound 1 µM

Cell Line | relative viability
NCI-H2126 | 0.731
EPLC-272H | 0.939
NCI-H1755 | 0.988
NCI-H2023 | 0.725
NCI-H1650 | 0.738
NCI-H1793 | 0.872
H3255 | 0.28
NCI-H1975 | 0.919
PC-14 | 0.362
NCI-H1299 | 0.952
NCI-H1437 | 0.876
HOP-62 | 0.796
HCC-44 | 1.04
BEN | 0.525
LOU-NH91 | 0.781
NCI-H661 | 0.424
NCI-H1651 | 0.824
PC-3 [JPC-3] | 0.445

Cell Line | relative viability
SW 1573 | 0.978
NCI-H2009 | 0.759
ABC-1 | 0.973
Calu-6 | 0.924
SK-LU-1 | 0.803
COR-L23 | 0.98
NCI-H1563 | 0.961
NCI-H1792 | 0.959
NCI-H358 | 0.407
COR-L 105 | 0.373
NCI-H520 | 0.751
EBC-1 | 0.261
NCI-H2228 | 1.06
A549 | 1.07
IA-LM | 0.608
NCI-H650 | 0.681
SK-MES-1 | 0.486
